Source: ChEMBL document CHEMBL2407067, “Pyridone-conjugated monobactam antibiotics with gram-negative activity” (J Med Chem, 2013)
Converted amounts (≈) assume the structure as drawn.

Legend:
Acinetobacter baumannii = assay: Antibacterial activity against Acinetobacter baumannii AB-3167 by broth microdilution method; assay type: functional
Klebsiella pneumoniae [1] = assay: Antibacterial activity against Klebsiella pneumoniae 1487-07 by broth microdilution method; assay type: functional
Klebsiella pneumoniae [2] = assay: Antibacterial activity against Klebsiella pneumoniae 1000-02 by broth microdilution method; assay type: functional
Pseudomonas aeruginosa [3] = assay: Antibacterial activity against Pseudomonas aeruginosa 1042-06 by broth microdilution method; assay type: functional
Pseudomonas aeruginosa [4] = assay: microbe, parasite or virus in culture; conditions: 1091-05
Description: Antibacterial activity against Pseudomonas aeruginosa 1091-05 by broth microdilution method

Pseudomonas aeruginosa [5] = assay: Antibacterial activity against Pseudomonas aeruginosa from cystic fibrosis patients by broth microdilution method; assay type: functional
Acinetobacter sp. = assay: Antibacterial activity against Acinetobacter spp. by broth microdilution method; assay type: functional
Escherichia coli [6] = assay: Antibacterial activity against Escherichia coli expressing defined beta-lactamase by broth microdilution method; assay type: functional
Escherichia coli [7] = assay: Antibacterial activity against Escherichia coli expressing CTX-M by broth microdilution method; assay type: functional
Escherichia coli [8] = assay: Antibacterial activity against Escherichia coli expressing ESBL by broth microdilution method; assay type: functional
Klebsiella pneumoniae [9] = assay: Antibacterial activity against Klebsiella pneumoniae expressing KPC by broth microdilution method; assay type: functional
Klebsiella pneumoniae [10] = assay: Antibacterial activity against Klebsiella pneumoniae expressing ESBL by broth microdilution method; assay type: functional
Klebsiella pneumoniae [11] = assay: Antibacterial activity against Klebsiella pneumoniae expressing defined beta-lactamase by broth microdilution method; assay type: functional
Pseudomonas aeruginosa [12] = assay: Antibacterial activity against Pseudomonas aeruginosa expressing metallo-beta-lactamase by broth microdilution method; assay type: functional

| MIC (Acinetobacter baumannii) [µg/mL] | MIC (Klebsiella pneumoniae [1]) [µg/mL] | MIC (Klebsiella pneumoniae [2]) [µg/mL] | MIC (Pseudomonas aeruginosa [3]) [µg/mL] | MIC (Pseudomonas aeruginosa [4]) [µg/mL] | Structure (SMILES) | further results |
| --- | --- | --- | --- | --- | --- | --- |
| 1 (≈ 1.63 µM) | 32 (≈ 52.1 µM) | 8 (≈ 13 µM) | 16 (≈ 26 µM) | 1 (≈ 1.63 µM) | Nc1nc(/C(=N/OC2CCCC2)C(=O)N[C@@H]2C(=O)N(S(=O)(=O)O)[C@@H]2CNC(=O)NCc2cc(=O)c(O)cn2O)cs1 |  |
| 0.5 (≈ 0.803 µM) | > 64 | > 64 | 16 (≈ 25.7 µM) | 0.5 (≈ 0.803 µM) | Nc1nc(/C(=N/Oc2ccccc2)C(=O)N[C@@H]2C(=O)N(S(=O)(=O)O)[C@@H]2CNC(=O)NCc2cc(=O)c(O)cn2O)cs1 |  |
| 8 (≈ 13.6 µM) | 64 (≈ 109 µM) | 32 (≈ 54.4 µM) | 64 (≈ 109 µM) | 8 (≈ 13.6 µM) | CC(C)(O/N=C(\C(=O)N[C@@H]1C(=O)N(S(=O)(=O)O)[C@@H]1CNC(=O)c1cc(=O)c(O)co1)c1csc(N)n1)C(=O)O |  |
| 2 (≈ 3.24 µM) | 8 (≈ 13 µM) | 0.5 (≈ 0.811 µM) | 8 (≈ 13 µM) | 2 (≈ 3.24 µM) | CNn1cc(O)c(=O)cc1C(=O)NC[C@@H]1[C@H](NC(=O)/C(=N\OC(C)(C)C(=O)O)c2csc(N)n2)C(=O)N1S(=O)(=O)O |  |
|  | 8 (≈ 13.2 µM) |  | 4 (≈ 6.62 µM) | 0.125 (≈ 0.207 µM) | Nc1nc(/C(=N/OCC(=O)O)C(=O)N[C@@H]2C(=O)N(S(=O)(=O)O)[C@@H]2CNC(=O)NCc2cc(=O)c(O)cn2O)cs1 |  |
| 32 (≈ 54.5 µM) | 64 (≈ 109 µM) | 32 (≈ 54.5 µM) | > 64 | 32 (≈ 54.5 µM) | CC(C)(O/N=C(\C(=O)N[C@@H]1C(=O)N(S(=O)(=O)O)[C@@H]1CNC(=O)c1[nH]ccc(=O)c1O)c1csc(N)n1)C(=O)O |  |
|  | 1 (≈ 1.44 µM) |  | 8 (≈ 11.5 µM) | 1 (≈ 1.44 µM) | Nc1nc(/C(=N/O[C@@H](Cc2ccccc2)C(=O)O)C(=O)N[C@@H]2C(=O)N(S(=O)(=O)O)[C@@H]2CNC(=O)NCc2cc(=O)c(O)cn2O)cs1 |  |
| 1 (≈ 1.51 µM) | 1 (≈ 1.51 µM) |  | 16 (≈ 24.2 µM) | 1 (≈ 1.51 µM) | CC(C)C[C@H](O/N=C(\C(=O)N[C@@H]1C(=O)N(S(=O)(=O)O)[C@@H]1CNC(=O)NCc1cc(=O)c(O)cn1O)c1csc(N)n1)C(=O)O |  |
| 1 (≈ 1.62 µM) | 8 (≈ 13 µM) | 1 (≈ 1.62 µM) | 4 (≈ 6.48 µM) | 1 (≈ 1.62 µM) | COn1cc(O)c(=O)cc1C(=O)NC[C@@H]1[C@H](NC(=O)/C(=N\OC(C)(C)C(=O)O)c2csc(N)n2)C(=O)N1S(=O)(=O)O |  |
| 0.125 (≈ 0.19 µM) | 0.5 (≈ 0.759 µM) | 0.25 (≈ 0.38 µM) | 1 (≈ 1.52 µM) | 0.25 (≈ 0.38 µM) | Nc1nc(/C(=N/OC2(C(=O)O)CCCC2)C(=O)N[C@@H]2C(=O)N(S(=O)(=O)O)[C@@H]2CNC(=O)NCc2cc(=O)c(O)cn2O)cs1 |  |
| 0.125 (≈ 0.176 µM) | 16 (≈ 22.5 µM) |  | 1 (≈ 1.41 µM) |  | CC(C)(O/N=C(\C(=O)N[C@@H]1C(=O)N(S(=O)(=O)O)[C@@H]1CNc1cc(C(=O)NCc2cc(=O)c(O)cn2O)ccn1)c1csc(N)n1)C(=O)O |  |

| Structure (SMILES) | MIC (Acinetobacter baumannii) [µg/mL] | MIC (Klebsiella pneumoniae [1]) [µg/mL] | MIC (Klebsiella pneumoniae [2]) [µg/mL] | MIC (Pseudomonas aeruginosa [3]) [µg/mL] | MIC (Pseudomonas aeruginosa [4]) [µg/mL] | further results |
| --- | --- | --- | --- | --- | --- | --- |
| C[C@@H](O)[C@H]1C(=O)N2C(C(=O)O)=C(S[C@@H]3CN[C@H](C(=O)N(C)C)C3)[C@H](C)[C@H]12 [MEROPENEM] | 0.25 (≈ 0.652 µM) |  | 0.25 (≈ 0.652 µM) |  | 2 (≈ 5.22 µM) | MIC50 (Pseudomonas aeruginosa [5]): 1 µg/mL (≈ 2.61 µM); MIC90 (Pseudomonas aeruginosa [5]): 16 µg/mL (≈ 41.7 µM); MIC50 (Acinetobacter sp.): 1 µg/mL (≈ 2.61 µM); MIC90 (Acinetobacter sp.): 32 µg/mL (≈ 83.4 µM); MIC50 (Escherichia coli [6]): 0.03 µg/mL (≈ 0.0782 µM); MIC90 (Escherichia coli [6]): 0.06 µg/mL (≈ 0.156 µM); MIC50 (Escherichia coli [7]): 0.03 µg/mL (≈ 0.0782 µM); MIC90 (Escherichia coli [7]): 0.06 µg/mL (≈ 0.156 µM); MIC50 (Escherichia coli [8]): 0.03 µg/mL (≈ 0.0782 µM); MIC90 (Escherichia coli [8]): 0.06 µg/mL (≈ 0.156 µM); MIC50 (Klebsiella pneumoniae [9]): 32 µg/mL (≈ 83.4 µM); MIC90 (Klebsiella pneumoniae [9]): > 64 µg/mL; MIC50 (Klebsiella pneumoniae [10]): 0.03 µg/mL (≈ 0.0782 µM); MIC90 (Klebsiella pneumoniae [10]): 0.25 µg/mL (≈ 0.652 µM); MIC50 (Klebsiella pneumoniae [11]): 0.03 µg/mL (≈ 0.0782 µM); MIC90 (Klebsiella pneumoniae [11]): 0.25 µg/mL (≈ 0.652 µM) |
| CO/N=C(\C(=O)N[C@@H]1C(=O)N2C(C(=O)[O-])=C(C[N+]3(C)CCCC3)CS[C@H]12)c1csc(N)n1 | 2 (≈ 4.16 µM) | > 64 |  |  | 2 (≈ 4.16 µM) | MIC50 (Pseudomonas aeruginosa [5]): 8 µg/mL (≈ 16.6 µM); MIC90 (Pseudomonas aeruginosa [5]): > 64 µg/mL; MIC50 (Acinetobacter sp.): 8 µg/mL (≈ 16.6 µM); MIC90 (Acinetobacter sp.): > 64 µg/mL; MIC50 (Escherichia coli [6]): 0.25 µg/mL (≈ 0.52 µM); MIC90 (Escherichia coli [6]): 4 µg/mL (≈ 8.32 µM); MIC50 (Escherichia coli [7]): 64 µg/mL (≈ 133 µM); MIC90 (Escherichia coli [7]): > 64 µg/mL; MIC50 (Escherichia coli [8]): 64 µg/mL (≈ 133 µM); MIC90 (Escherichia coli [8]): > 64 µg/mL; MIC50 (Klebsiella pneumoniae [9]): > 64 µg/mL; MIC90 (Klebsiella pneumoniae [9]): > 64 µg/mL; MIC50 (Klebsiella pneumoniae [10]): 8 µg/mL (≈ 16.6 µM); MIC90 (Klebsiella pneumoniae [10]): > 64 µg/mL; MIC50 (Klebsiella pneumoniae [11]): 4 µg/mL (≈ 8.32 µM); MIC90 (Klebsiella pneumoniae [11]): > 64 µg/mL; MIC50 (Pseudomonas aeruginosa [12]): > 64 µg/mL; MIC90 (Pseudomonas aeruginosa [12]): > 64 µg/mL |
